Data as given in patent EP4772649A1, “SCREENING METHOD FOR ODOR-SUPPRESSING MATERIAL” (Takasago International Corporation, priority 2023, dated 2025).
“Also recorded” adds a separate entry of the source.

Key:
[1] = test system: olfactory receptor OR2AG2; test: Luciferase reporter gene assay of olfactory receptor response (Fold Increase) in HEK293T cells expressing OR2AG2; type: cell-based, human; conditions: for OR2AG2 response (Fold Increase value): screening of 1,367 odorant substances, 1 µM to 1 mM, Figure 2
Experimental: 0.05 µg of the human olfactory receptor gene expression vector, 0.01 µg of RTP1S vector, 0.01 µg of the firefly luciferase vector pGL4.29 (Promega) containing a cAMP response element promoter, and 0.005 µg of the Renilla luciferase vector pGL4.74 (Promega) containing a thymidine kinase promoter were dissolved in 10 µL of Opti-MEM I (gibco) to prepare a gene solution (for one well). HEK293T cells were seeded at 100 µL per well in a 96-well plate (Biocoat, Corning) at a cell number that would reach confluence after 24 hours. The gene solution was added to each well using lipofection in accordance with the instructions for Lipofectamine 3000 to introduce the gene into the cells, which were then cultured at 37°C in a 5% carbon dioxide atmosphere for 24 hours.
After removing the culture medium, 60 µL of an odorant compound sample prepared in CD293 medium (gibco) (supplemented with 20 µM L-glutamine), at the concentration required for measurement, was added to each well. After stimulation for 3 hours, luciferase activity was measured in accordance with the instructions for the Dual-Luciferase Reporter Assay System (Promega). The response intensity of the olfactory receptor was determined using, as an index, a Fold Increase value obtained by dividing the luciferase activity generated by stimulation with the odorant compound by the luciferase activity generated in a test system free of the odorant compound.
For odorant substances whose response values in the luciferase reporter gene assay were equal to or greater than a predetermined threshold, the primary note from the odor-note information was extracted, and the proportion of each odor note was determined.
To extract the "dust odor" generated when aspartame is combined with certain fruit flavors, as described in Patent Literature 1, which is well-known as a "dust odor" of unknown causative substance, aspartame, trans-2-hexenal, and hexanal were mixed at a 1:1:1 (mass ratio) and gently heated at 60°C for one week, after which the reaction product was extracted with hexane. The present extract was fractionated by medium-pressure HPLC with a silica gel column using hexane and ethyl acetate, then fractionated by medium-pressure HPLC with an ODS column using water and acetonitrile, and further fractionated by high-pressure HPLC with an ODS column using water and acetonitrile, to obtain an odor solution containing "dust odor." This "dust odor" solution with unknown components was added to HEK293T cells expressing the olfactory receptor OR2AG2 gene at final concentrations of 0.05 mass%, 0.1 mass%, and 0.2 mass%, and a luciferase reporter gene assay was performed.

[2] = test system: olfactory receptor OR2AG1; conditions: Non Patent Literature 6; cited from earlier work
[3] = test system: olfactory receptor OR2AG2; test: Antagonist screening: suppression of OR2AG2 response by luciferase reporter gene assay (Normalized Response); type: cell-based, human
Experimental: The human olfactory receptor OR2AG2 gene expression vector was cloned, and HEK293T cells expressing the olfactory receptor OR2AG2 gene were used to perform an antagonist screening in which the effect of test substances on suppressing OR2AG2 response is measured by a luciferase reporter gene assay. In the luciferase reporter gene assay, each of approximately 500 test substances was individually mixed with each "dust odor" compound sample, and the Fold Increase value obtained in each test with the test substance mixed was calculated as the Normalized Response, assuming that the Fold Increase value obtained in the test without mixing any test substance was 1. The concentrations of the "dust odor" compounds used as samples were set as follows: a) 3-ethyl-2-pentylpyridine, 300 µM; b) 2-methoxy-3-isopropylpyrazine, 500 µM; c) 2-isobutyl-3-methoxypyrazine, 500 µM; and d) 2-sec-butyl-3-methoxypyrazine, 500 µM. […] As examples of antagonists thereby identified for each of the "dust odor" compounds a) to d), a) 2,4-decadienal, b) trans-2-nonenal, c) 2,4-undecadienal, and d) 2,4-decadienal were measured for their concentration-dependent effects in suppressing OR2AG2 response to each sample substance using a luciferase reporter gene assay. The concentrations of the samples were set as follows: a) 3-ethyl-2-pentylpyridine, 300 µM; b) 2-methoxy-3-isopropylpyrazine, 500 µM; c) 2-isobutyl-3-methoxypyrazine, 500 µM; and d) 2-sec-butyl-3-methoxypyrazine, 500 µM. The concentrations of the antagonists for each sample were set at 0 µM, 10 µM, 30 µM, 100 µM, and 300 µM.
As in (2-3) of Example 2, HEK293T cells expressing the olfactory receptor OR2AG2 gene were used to determine the effect of test substances in suppressing OR2AG2 response to an odor solution sample with unknown components containing "dust odor" by antagonist screening using a luciferase reporter gene assay. […] As an example of antagonist, the effect of trans-2-nonenal in suppressing OR2AG2 response to the "dust odor" solution with unknown components was measured by a luciferase reporter gene assay. The final concentration of the sample was 0.1 mass%, and the concentrations of trans-2-nonenal relative to the sample were 0 µM, 1 µM, 2 µM, and 4 µM.

OR2M3 = conditions: Patent Literature 2; cited from earlier work
OR11A1 = conditions: Patent Literature 2; cited from earlier work

## COc1nccnc1CC(C)C [2-isobutyl-3-methoxypyrazine]
[1]; 1 mM odorant, screening of 396 human olfactory receptors, Figure 1
  response of olfactory receptor OR2AG2 (Fold Increase value): extremely strong response; also recorded: strong and specific response
[1]
  OR2AG2 response (Fold Increase value): trigger OR2AG2 response
[2]
  response of olfactory receptor OR2AG1: responds

## CCCCCc1ncccc1CC [3-ethyl-2-pentylpyridine]
[1]
  OR2AG2 response (Fold Increase value): trigger OR2AG2 response

## CCCCCCC=CC=CC=O [2,4-undecadienal]
[3]; against 2-isobutyl-3-methoxypyrazine 500 µM, test substance 1 µM to 1 mM
  Normalized Response: less than 1

## CCCCCC/C=C/C=O [trans-2-nonenal]
[3]; against 0.1 mass% odor solution with unknown components containing "dust odor"
  Normalized Response: below 1
[3]; against 2-methoxy-3-isopropylpyrazine 500 µM, test substance 1 µM to 1 mM
  Normalized Response: less than 1

## CC1(O)CC2CCC1(C)C2(C)C (stereo not drawn) [2-methylisoborneol]
OR2M3
  response of olfactory receptor OR2M3: specifically respond

## CCC(C)c1nccnc1OC (stereo not drawn) [2-sec-butyl-3-methoxypyrazine]
[1]
  OR2AG2 response (Fold Increase value): trigger OR2AG2 response
[2]
  response of olfactory receptor OR2AG1: responds

## COc1nccnc1C(C)C [2-methoxy-3-isopropylpyrazine]
[1]
  OR2AG2 response (Fold Increase value): trigger OR2AG2 response
[2]
  response of olfactory receptor OR2AG1: responds

## CC1CCCC2(C)CCCCC12O (stereo not drawn) [geosmin]
OR11A1
  response of olfactory receptor OR11A1: specifically respond

## CCCCCC=CC=CC=O [2,4-decadienal]
[3]; against 2-sec-butyl-3-methoxypyrazine 500 µM, test substance 1 µM to 1 mM
  Normalized Response: less than 1
[3]; against 3-ethyl-2-pentylpyridine 300 µM, test substance 1 µM to 1 mM
  Normalized Response: less than 1
